Experimental data from article PMC5408701, “Isomaltooligosaccharide-binding structure of Paenibacillus sp. 598K cycloisomaltooligosaccharide glucanotransferase” (Bioscience Reports, 2017).

Molecular target: T1, PsCITase (core domain) (Paenibacillus sp. 598K, UniProt G9MBW2)
T1 construct: gene cit; core domain 41-739 (N-terminal 40 and C-terminal 235 residues, incl. CBM35-2, removed), N-terminal pET15b His tag (numbered Met21-Met40), E. coli BL21(DE3); full length 972 residues
Test: X-ray crystallography, crystal soaked with […] CI-7, […] A
Format: binding

T1 sequence (G9MBW2 entry or part of it): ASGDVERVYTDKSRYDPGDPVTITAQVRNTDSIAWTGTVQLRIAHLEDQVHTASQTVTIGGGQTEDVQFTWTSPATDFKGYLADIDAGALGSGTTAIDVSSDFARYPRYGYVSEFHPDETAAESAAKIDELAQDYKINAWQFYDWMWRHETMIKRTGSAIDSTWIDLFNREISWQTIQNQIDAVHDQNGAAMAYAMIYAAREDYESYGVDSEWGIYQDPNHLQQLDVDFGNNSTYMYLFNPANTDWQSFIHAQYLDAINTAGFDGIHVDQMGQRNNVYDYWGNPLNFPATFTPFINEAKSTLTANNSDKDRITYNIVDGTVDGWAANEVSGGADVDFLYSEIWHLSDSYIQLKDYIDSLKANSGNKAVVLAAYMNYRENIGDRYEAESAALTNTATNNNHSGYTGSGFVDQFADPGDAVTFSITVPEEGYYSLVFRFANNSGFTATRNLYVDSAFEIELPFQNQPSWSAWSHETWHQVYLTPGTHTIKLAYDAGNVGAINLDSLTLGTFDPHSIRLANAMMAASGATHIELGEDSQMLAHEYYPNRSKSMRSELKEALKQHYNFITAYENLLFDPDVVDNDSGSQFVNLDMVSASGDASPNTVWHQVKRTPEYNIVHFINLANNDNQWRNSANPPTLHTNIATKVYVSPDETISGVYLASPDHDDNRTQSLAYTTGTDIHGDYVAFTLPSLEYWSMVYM

| Compound | X-ray crystallography, crystal soaked with 5% CI-7, 2.60 A (variable loop (canonical) site of PsCBM35-1, Trp507, on crystallographic two-fold axis, averaged density, soaked CI-7 is hydrolysed at the catalytic site) | X-ray crystallography, crystal soaked with 5% CI-7, 2.60 A (catalytic cleft, subsites -7 to -1, hydrolysis product of soaked CI-7, Glc-1 density ambiguous) |
| --- | --- | --- |
| O[C@@H]1[C@@H](O)[C@H]2OC[C@H]3O[C@H](OC[C@H]4O[C@H](OC[C@H]5O[C@H](OC[C@H]6O[C@H](OC[C@H]7O[C@H](OC[C@H]8O[C@H](OC[C@@H](O2)[C@H]1O)[C@H](O)[C@@H](O)[C@@H]8O)[C@H](O)[C@@H](O)[C@@H]7O)[C@H](O)[C@@H](O)[C@@H]6O)[C@H](O)[C@@H](O)[C@@H]5O)[C@H](O)[C@@H](O)[C@@H]4O)[C@H](O)[C@@H](O)[C@@H]3O [CI-7, cycloisomaltoheptaose] | The bound sugar appeared to be soaked CI-7 with the cyclic sugar chain structure |  |
| OC[C@H]1O[C@H](OC[C@H]2O[C@H](OC[C@H]3O[C@H](OC[C@H]4O[C@H](OC[C@H]5O[C@H](OC[C@H]6O[C@H](OC[C@H]7OC(O)[C@H](O)[C@@H](O)[C@@H]7O)[C@H](O)[C@@H](O)[C@@H]6O)[C@H](O)[C@@H](O)[C@@H]5O)[C@H](O)[C@@H](O)[C@@H]4O)[C@H](O)[C@@H](O)[C@@H]3O)[C@H](O)[C@@H](O)[C@@H]2O)[C@H](O)[C@@H](O)[C@@H]1O (some centres unmarked) [IG-7, isomaltoheptaose] |  | the bound CI-7 was observed as the cleaved linear form like isomaltoheptaose (IG-7) |
